Test results reported in ChEMBL document CHEMBL1150339, “Synthesis and anti-breast cancer activities of substituted quinolines” (Bioorg Med Chem Lett, 2008).
Calls of active or inactive are those of the source. The rule behind the calls is not given here.

These compounds were tested on T47D (assay: Cell viability of human T47D cells by trypan blue exclusion assay).
Assay type: functional, cell-based

IC50	SMILES
15.6 nM	COc1cc(NCc2ccco2)c2nccc(C)c2c1Oc1cccc(C(F)(F)F)c1
1970 nM	CCOC(=N)CCNc1cc(OC)c(Oc2cccc(C(F)(F)F)c2)c2c(C)ccnc12
119 nM	COc1cc(NCCCN)c2nccc(C)c2c1Oc1cccc(C(F)(F)F)c1
1280 nM	COc1cc(NCc2cnc[nH]2)c2nccc(C)c2c1Oc1cccc(C(F)(F)F)c1
378 nM	COc1cc(NCCC#N)c2nccc(C)c2c1Oc1cccc(C(F)(F)F)c1
3730 nM	COc1cc(NCc2cccs2)c2nccc(C)c2c1Oc1cccc(C(F)(F)F)c1
519 nM	COc1cc(NCCC(=N)N)c2nccc(C)c2c1Oc1cccc(C(F)(F)F)c1

Each compound was assayed on T47D (assay: Cell viability of human T47D cells at 10 uM by trypan blue exclusion assay).
Assay type: functional, cell-based

SMILES	Activity
COc1cc(N)c2nccc(C)c2c1Oc1cccc(C(F)(F)F)c1	inactive
